# Results from patent US6750025B1 (priority 1998, dated 2004).
# “Also recorded” adds a separate entry of the source.
# Tests used:
# [1] = target: streptavidin binding to the prion protein (Streptomyces avidinii, UniProt P22629)
# Streptavidin = Streptavidin (Streptomyces avidinii, UniProt P22629); conditions: cited from earlier work
# [2] = target: T1, streptavidin binding to Gly-Tyr-Gly-Gln-Pro-His-Gly-Gly sequence attached to resin A (Streptomyces avidinii, UniProt P22629)
# T1 construct: purchased Sigma (streptavidin-phosphatase); Commonwealth Biotechnologies Inc. (peptide resin)
# T1 sequence (P22629 25-183): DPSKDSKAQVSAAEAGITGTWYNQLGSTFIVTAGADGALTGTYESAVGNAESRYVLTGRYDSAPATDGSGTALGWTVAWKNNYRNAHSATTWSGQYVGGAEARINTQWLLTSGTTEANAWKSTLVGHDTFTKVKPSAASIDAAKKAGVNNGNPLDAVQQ
# Chain of streptavidin binding to the prion protein (P22629 25-183 limits assumed): as the sequence (P22629 25-183) above
# Chain of Streptavidin (P22629 25-183): as above
compound,measurement,setting,value
O=C(O)CCCC[C@@H]1SC[C@@H]2NC(=O)N[C@@H]21 [D-biotin],competition with the production of signal,[1]; D-biotin added after binding of streptavidin to the proteins,did not compete with the production of signal
same,inhibition of banding at 30-34 kDa,[1]; streptavidin-phosphatase mixed with 10 μM D-biotin prior to addition to the Western blot,completely inhibited
same,affinity of streptavidin to biotin,Streptavidin,~10^15
same,phosphatase activity in flow through of resin A after biotin pre-incubation,[2],significant phosphatase activity; also recorded: found in the first few column volumes
